In patent US11814367B2, “Inhibitors of glycogen synthase 1 (GYS1) and methods of use thereof” (Maze Therapeutics, Inc., priority 2021, dated 2023):

How the values were obtained:
[1] = target: hGYS1 enzyme (recombinant hGYS1/GN1 protein) (Homo sapiens (Human), UniProt P13807); assay: GYS1 coupled enzyme assay (PK/LDH); assay type: biochemical; conditions: hGYS1/GN1 50 nM, UDP-Glucose 0.8 mM, G6P 1 mM; geometric mean of at least 2 runs
[2] = system: hGYS1 enzyme / glycogen synthesis in HeLa cells; assay: GYS1 cell based assay (glycogen synthesis, Glucose-glo); set-up: species or system human; conditions: Homo sapiens, HeLa, 24 h, 24 h incubation, 20 mM glucose, geometric mean of at least 2 runs
Outline: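 HeLa cells starved 24 h in medium containing only 1× Glutamax were plated onto compound in medium with 20 mM glucose (1% DMSO final) for 24 h, 37 °C, 5% CO2. Acid lysates were Tris-quenched, glucoamylase-digested (pH 5.3, 1 h, 37 °C) and read by Glucose-glo luminescence. IC50 came from Hill fits, as geometric mean of ≥2 runs.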

[3] = target: hGYS2 enzyme (recombinant hGYS2/GN1 protein) (Homo sapiens (Human), UniProt P54840); assay: GYS2 coupled enzyme assay (PK/LDH); assay type: biochemical; conditions: geometric mean of at least 2 assay runs on separate days, read-out: Avg_IC50
Outline: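 hGYS2/GN1 200 nM; UDP-Glc 2 mM; glycogen 0.2%; G6P 2 mM; PEP 2 mM, NADH 0.6 mM, PK/LDH 20 U/mL. 50 mM Tris pH 7.5, MgCl2, KCl, BSA, TCEP, 2.5% DMSO. Kinetic A340, 10 min. IC50 = geomean of ≥2 runs.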

hGYS2 enzyme (recombinant hGYS2/GN1 protein), sequence (P54840 whole entry): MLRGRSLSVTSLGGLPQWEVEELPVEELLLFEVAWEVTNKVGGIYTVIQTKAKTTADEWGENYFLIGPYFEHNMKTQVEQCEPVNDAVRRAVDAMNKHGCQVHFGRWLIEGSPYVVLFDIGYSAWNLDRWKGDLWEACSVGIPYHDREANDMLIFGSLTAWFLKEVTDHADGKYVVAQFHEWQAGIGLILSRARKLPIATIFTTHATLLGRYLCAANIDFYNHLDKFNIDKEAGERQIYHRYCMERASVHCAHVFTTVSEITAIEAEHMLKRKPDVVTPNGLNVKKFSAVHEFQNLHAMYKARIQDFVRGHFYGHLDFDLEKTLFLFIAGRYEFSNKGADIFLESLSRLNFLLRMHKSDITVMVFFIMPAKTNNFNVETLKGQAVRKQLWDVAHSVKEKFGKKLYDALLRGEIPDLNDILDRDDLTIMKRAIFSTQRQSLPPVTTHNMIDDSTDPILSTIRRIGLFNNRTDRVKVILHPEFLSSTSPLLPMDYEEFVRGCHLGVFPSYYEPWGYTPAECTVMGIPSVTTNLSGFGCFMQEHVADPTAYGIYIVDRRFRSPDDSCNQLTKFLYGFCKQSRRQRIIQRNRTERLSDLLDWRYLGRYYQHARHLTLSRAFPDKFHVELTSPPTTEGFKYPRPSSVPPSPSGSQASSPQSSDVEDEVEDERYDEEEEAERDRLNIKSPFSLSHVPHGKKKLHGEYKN
hGYS2 enzyme (recombinant hGYS2/GN1 protein), sequence (P46976 whole entry partner): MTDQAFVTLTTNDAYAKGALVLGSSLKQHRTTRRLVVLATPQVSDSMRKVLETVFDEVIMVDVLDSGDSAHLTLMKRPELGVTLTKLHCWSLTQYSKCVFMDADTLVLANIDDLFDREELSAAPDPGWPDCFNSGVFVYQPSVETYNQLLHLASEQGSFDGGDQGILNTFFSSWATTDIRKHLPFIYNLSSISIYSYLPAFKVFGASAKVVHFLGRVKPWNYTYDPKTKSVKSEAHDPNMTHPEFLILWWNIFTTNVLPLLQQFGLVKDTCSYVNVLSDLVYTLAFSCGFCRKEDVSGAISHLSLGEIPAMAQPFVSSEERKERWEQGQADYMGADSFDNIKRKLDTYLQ
hGYS1 enzyme (recombinant hGYS1/GN1 protein), sequence (P13807 whole entry): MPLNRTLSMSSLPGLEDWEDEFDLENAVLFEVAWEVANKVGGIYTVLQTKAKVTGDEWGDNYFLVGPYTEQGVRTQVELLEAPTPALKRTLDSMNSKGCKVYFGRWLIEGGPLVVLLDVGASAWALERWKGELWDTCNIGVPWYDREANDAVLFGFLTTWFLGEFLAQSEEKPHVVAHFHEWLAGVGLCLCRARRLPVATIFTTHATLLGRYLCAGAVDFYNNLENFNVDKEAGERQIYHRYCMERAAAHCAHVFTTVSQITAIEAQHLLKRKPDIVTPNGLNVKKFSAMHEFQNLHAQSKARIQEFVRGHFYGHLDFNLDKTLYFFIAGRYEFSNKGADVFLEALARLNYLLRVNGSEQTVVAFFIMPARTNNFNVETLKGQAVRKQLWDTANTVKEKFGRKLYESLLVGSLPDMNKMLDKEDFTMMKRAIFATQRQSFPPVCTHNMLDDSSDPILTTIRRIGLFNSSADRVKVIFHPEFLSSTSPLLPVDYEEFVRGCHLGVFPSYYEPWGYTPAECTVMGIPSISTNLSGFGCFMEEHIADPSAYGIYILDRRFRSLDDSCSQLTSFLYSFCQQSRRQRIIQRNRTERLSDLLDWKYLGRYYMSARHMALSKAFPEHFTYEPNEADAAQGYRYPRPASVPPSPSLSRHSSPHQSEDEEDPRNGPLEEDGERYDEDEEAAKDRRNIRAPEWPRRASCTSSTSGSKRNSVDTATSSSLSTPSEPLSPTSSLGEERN
hGYS1 enzyme (recombinant hGYS1/GN1 protein), sequence (P46976 whole entry partner): as the sequence (P46976 whole entry partner) above

| Compound | IC50 [1] | IC50 [2] | IC50 [3] |
| --- | --- | --- | --- |
| Cc1nccc(N(C)CC(=O)N2C[C@H](F)C[C@H]2C(=O)N[C@@H](c2ccccc2)c2ccc(C3CC3)c(F)c2)n1 [Compound 476, (2S,4R)-N-[(S)-(4-cyclopropyl-3-fluorophenyl)(phenyl)methyl]-4-fluoro-1-{2-[methyl(2-methylpyrimidin-4-yl)amino]acetyl} pyrrolidine-2-carboxamide] | 39 nM | 900 nM | > 100000 nM |
| O=C(N[C@@H](c1ccccc1)c1ccc(C2CC(F)(F)C2)c(F)n1)[C@@H]1C[C@@H](F)CN1C(=O)Cc1cnn[nH]1 [Compound 508, (2S,4R)-N-[(S)-[5-(3,3-difluorocyclobutyl)-6-fluoropyridin-2-yl](phenyl)methyl]-4-fluoro-1-[2-(1H-1,2,3-triazol-5-yl)acetyl]pyrrolidine-2-carboxamide] | 21 nM | 310 nM | > 100000 nM |
| O=C(N[C@@H](c1ccccc1)c1ccc(C2CC(F)(F)C2)c(F)n1)[C@@H]1C[C@@H](F)CN1C(=O)Cc1ncco1 [Compound 505, (2S,4R)-N-[(S)-[5-(3,3-difluorocyclobutyl)-6-fluoropyridin-2-yl](phenyl)methyl]-4-fluoro-1-[2-(1,3-oxazol-2-yl)acetyl]pyrrolidine-2-carboxamide] | 20 nM | 350 nM | > 100000 nM |
| CC(C)c1ccc([C@@H](NC(=O)[C@@H]2C[C@@H](F)CN2C(=O)CNC(=O)N2CCN(C)CC2)c2ccccc2)nc1 [Compound 283, N-{2-[(2S,4R)-4-fluoro-2-{[(S)-phenyl[5-(propan-2-yl)pyridin-2-yl]methyl]carbamoyl}pyrrolidin-1-yl]-2-oxoethyl}-4-methylpiperazine-1-carboxamide] | 58 nM | 2400 nM | > 100000 nM |
| CC(C)c1ccc([C@@H](NC(=O)[C@@H]2C[C@@H](F)CN2C(=O)Cn2ncc(N3CCC3)n2)c2ccccc2)nc1 [Compound 276, (2S,4R)-1-{2-[4-(azetidin-1-yl)-2H-1,2,3-triazol-2-yl]acetyl}-4-fluoro-N-[(S)-phenyl[5-(propan-2-yl)pyridin-2-yl]methyl]pyrrolidine-2-carboxamide] | 20 nM | 400 nM | > 100000 nM |
| CN1CCN(C(=O)OCC(=O)N2C[C@H](F)C[C@H]2C(=O)N[C@@H](c2ccccc2)c2ccc(C3(C)CC3)c(F)c2)CC1 [Compound 583, 2-[(2S,4R)-4-fluoro-2-{[(S)-[3-fluoro-4-(1-methylcyclopropyl)phenyl](phenyl)methyl]carbamoyl}pyrrolidin-1-yl]-2-oxoethyl 4-methylpiperazine-1-carboxylate] | 105 nM | 1640 nM | > 100000 nM |
| Cn1c(CC(=O)N2C[C@H](F)C[C@H]2C(=O)N[C@@H](c2ccccc2)c2ccc(C3(C)CC3)c(F)n2)cc2ccccc21 [Compound 591, (2S,4R)-4-fluoro-N-[(S)-[6-fluoro-5-(1-methylcyclopropyl)pyridin-2-yl](phenyl)methyl]-1-[2-(1-methyl-1H-indol-2-yl)acetyl]pyrrolidine-2-carboxamide] | 32 nM | 310 nM | > 100000 nM |
| CC(C)c1ccc([C@@H](NC(=O)[C@@H]2CC[C@H](C)N2C(=O)Cc2cnn[nH]2)c2ccccc2)nc1F [Compound 416, (2S,5S)-N-[(S)-[6-fluoro-5-(propan-2-yl)pyridin-2-yl](phenyl)methyl]-5-methyl-1-[2-(1H-1,2,3-triazol-5-yl)acetyl]pyrrolidine-2-carboxamide] | 25 nM | 470 nM | > 100000 nM |
| O=C(N[C@@H](c1ccccc1)c1ccc(C2CC2)c(F)c1)[C@@H]1C[C@@H](F)CN1C(=O)CN1Cc2ccccc2C1=O [Compound 453, (2S,4R)-N-[(S)-(4-cyclopropyl-3-fluorophenyl)(phenyl)methyl]-4-fluoro-1-[2-(1-oxo-2,3-dihydro-1H-isoindol-2-yl)acetyl] pyrrolidine-2-carboxamide] | 77 nM | 1840 nM | > 100000 nM |
| CC(C)c1ccc([C@@H](NC(=O)[C@@H]2C[C@@H](F)CN2C(=O)Cc2ccc3ncccc3c2)c2ccccc2)cc1F [Compound 357, (2S,4R)-4-fluoro-N-[(S)-[3-fluoro-4-(propan-2-yl)phenyl](phenyl)methyl]-1-[2-(quinolin-6-yl)acetyl]pyrrolidine-2-carboxamide] | 21 nM | 220 nM | > 100000 nM |
| CC1(c2ccc([C@@H](NC(=O)[C@@H]3C[C@@H](F)CN3C(=O)COC(=O)N3CCN(CC4CC4)CC3)c3ccccc3)cc2F)CC1 [Compound 584, 2-[(2S,4R)-4-fluoro-2-{[(S)-[3-fluoro-4-(1-methylcyclopropyl)phenyl](phenyl)methyl]carbamoyl}pyrrolidin-1-yl]-2-oxoethyl 4-(cyclopropylmethyl) piperazine-1-carboxylate] | 104 nM | 4070 nM | > 91800 nM |
| CC(=O)N1C[C@H]2CCC[C@@H](C(=O)N3C[C@H](F)C[C@H]3C(=O)N[C@@H](c3ccccc3)c3ccc(C(C)C)cc3)[C@H]2C1 [Compound 183, (2S,4R)-1-[(3aS,4R,7aS)-2-acetyl-octahydro-1H-isoindole-4-carbonyl]-4-fluoro-N-[(S)-phenyl[4-(propan-2-yl)phenyl]methyl]pyrrolidine-2-carboxamide] | 41 nM | 930 nM | > 100000 nM |
| CC(C)c1ccc([C@@H](NC(=O)[C@@H]2C[C@@H](F)CN2C(=O)Cc2nn(C)c(=O)n2C)c2ccccc2)nc1 [Compound 710, (2S,4R)-1-[2-(1,4-dimethyl-5-oxo-4,5-dihydro-1H-1,2,4-triazol-3-yl)acetyl]-4-fluoro-N-[(S)-phenyl[5-(propan-2-yl)pyridin-2-yl]methyl]pyrrolidine-2-carboxamide] | 146 nM | 2340 nM | > 100000 nM |
| CC(C)c1ccc([C@@H](NC(=O)[C@@H]2C[C@@H](F)CN2C(=O)Cn2nnnc2C(F)F)c2ccccc2)nc1F [Compound 400, (2S,4R)-1-{2-[5-(difluoromethyl)-1H-1,2,3,4-tetrazol-1-yl]acetyl}-4-fluoro-N-[(S)-[6-fluoro-5-(propan-2-yl)pyridin-2-yl](phenyl)methyl] pyrrolidine-2-carboxamide] | 12 nM | 170 nM | > 100000 nM |
| Cc1nc2ccccc2n1CC(=O)N1C[C@H](F)C[C@H]1C(=O)N[C@@H](c1ccccc1)c1ccc(C2CC2)c(F)c1 [Compound 464, (2S,4R)-N-[(S)-(4-cyclopropyl-3-fluorophenyl)(phenyl)methyl]-4-fluoro-1-[2-(2-methyl-1H-1,3-benzodiazol-1-yl)acetyl]pyrrolidine-2-carboxamide] | 23 nM | 650 nM | > 100000 nM |
| Cn1c(=O)n(CC(=O)N2C[C@H](F)C[C@H]2C(=O)N[C@@H](c2ccccc2)c2ccc(C3(C)CC3)c(F)c2)c2ccccc21 [Compound 568, (2S,4R)-4-fluoro-N-[(S)-[3-fluoro-4-(1-methylcyclopropyl)phenyl](phenyl)methyl]-1-[2-(3-methyl-2-oxo-2,3-dihydro-1H-1,3-benzodiazol-1-yl)acetyl]pyrrolidine-2-carboxamide] | 89 nM | 960 nM | 94200 nM |
| CC(C)c1ccc([C@@H](NC(=O)[C@@H]2C[C@@H](F)CN2C(=O)Cc2n[nH]c(=O)[nH]2)c2ccccc2)nc1 [Compound 284, (2S,4R)-4-fluoro-1-[2-(5-oxo-4,5-dihydro-1H-1,2,4-triazol-3-yl)acetyl]-N-[(S)-phenyl[5-(propan-2-yl)pyridin-2-yl]methyl]pyrrolidine-2-carboxamide] | 90 nM | 5190 nM | > 100000 nM |
| CCN(CC)c1cnn(CC(=O)N2C[C@H](F)C[C@H]2C(=O)N[C@@H](c2ccccc2)c2ccc(C3CC3)c(F)n2)n1 [Compound 319, (2S,4R)-N-[(S)-(5-cyclopropyl-6-fluoropyridin-2-yl)(phenyl)methyl]-1-{2-[4-(diethylamino)-2H-1,2,3-triazol-2-yl]acetyl}-4-fluoropyrrolidine-2-carboxamide] | 7 nM | 240 nM | > 100000 nM |
| CN(C)C(=O)NCC(=O)N1C[C@H](F)C[C@H]1C(=O)N[C@@H](c1ccccc1)c1ccc(C2CC(F)(F)C2)c(F)c1 [Compound 547, (2S,4R)-N-[(S)-[4-(3,3-difluorocyclobutyl)-3-fluorophenyl](phenyl)methyl]-1-{2-[(dimethylcarbamoyl)amino]acetyl}-4-fluoropyrrolidine-2-carboxamide] | 16 nM | 360 nM | > 100000 nM |
| CC1(c2ccc([C@@H](NC(=O)[C@@H]3C[C@@H](F)CN3C(=O)Cn3nnc4ccccc43)c3ccccc3)nc2F)CC1 [Compound 594, (2S,4R)-1-[2-(1H-1,2,3-benzotriazol-1-yl)acetyl]-4-fluoro-N-[(S)-[6-fluoro-5-(1-methylcyclopropyl)pyridin-2-yl](phenyl)methyl] pyrrolidine-2-carboxamide] | 50 nM | 720 nM | > 100000 nM |
